Test results published in the NIST ThermoML archive (doi:10.1021/acs.jced.7b00604).
± gives the expanded uncertainty stated by the source.

Key:
[1] = 100 kPa, Liquid; for speed of sound: Frequency=3 MHz, Sing-around technique in a fixed-path interferometer; for mass density: Vibrating tube method
[2] = molar heat capacity at constant pressure; conditions: 100 kPa, Liquid, Extra sensitive DSC
[3] = xn = mol fraction of the nth substance listed; conditions: 100 kPa, Liquid, x1 = 1; for speed of sound: Frequency=3 MHz, Sing-around technique in a fixed-path interferometer; for mass density: Vibrating tube method

SMILES	speed of sound ([1]; 298.15 K)	mass density ([1]; 298.15 K)	speed of sound ([1]; 303.15 K)	mass density ([1]; 303.15 K)	speed of sound ([1]; 308.15 K)	mass density ([1]; 308.15 K)	speed of sound ([1]; 313.15 K)	mass density ([1]; 313.15 K)	speed of sound ([1]; 318.15 K)	mass density ([1]; 318.15 K)	speed of sound ([1]; 323.15 K)	mass density ([1]; 323.15 K)	molar heat capacity at constant pressure ([2]; 298.15 K)	molar heat capacity at constant pressure ([2]; 303.15 K)	molar heat capacity at constant pressure ([2]; 308.15 K)	molar heat capacity at constant pressure ([2]; 313.15 K)	molar heat capacity at constant pressure ([2]; 318.15 K)	molar heat capacity at constant pressure ([2]; 323.15 K)	other results
CCCC[n+]1ccn(C)c1.O=S(=O)([N-]S(=O)(=O)C(F)(F)F)C(F)(F)F	1227.8 ± 1.5 m/s	1437.12 ± 1.1 kg/m3	1216.7 ± 1.5 m/s	1432.51 ± 1.1 kg/m3	1205.8 ± 1.5 m/s	1427.43 ± 1.1 kg/m3	1194.9 ± 1.5 m/s	1422.86 ± 1.1 kg/m3	1184.2 ± 1.5 m/s	1417.91 ± 1.1 kg/m3	1173.6 ± 1.5 m/s	1413.58 ± 1.1 kg/m3	567.22 ± 22 J/K/mol	569.85 ± 22 J/K/mol	572.64 ± 22 J/K/mol	575.47 ± 22 J/K/mol	578.38 ± 22 J/K/mol	581.52 ± 23 J/K/mol	–
CCCC[n+]1ccn(C)c1.O=S(=O)([N-]S(=O)(=O)C(F)(F)F)C(F)(F)F + COCCO	–	–	–	–	–	–	–	–	–	–	–	–	–	–	–	–	–	–	speed of sound ([3]; 298.15 K): 1227.8 ± 1.5 m/s; mass density ([3]; 298.15 K): 1437.12 ± 1.1 kg/m3; speed of sound ([3]; 303.15 K): 1216.7 ± 1.5 m/s; mass density ([3]; 303.15 K): 1432.51 ± 1.1 kg/m3; speed of sound ([3]; 308.15 K): 1205.8 ± 1.5 m/s; mass density ([3]; 308.15 K): 1427.43 ± 1.1 kg/m3; speed of sound ([3]; 313.15 K): 1194.9 ± 1.5 m/s; mass density ([3]; 313.15 K): 1422.86 ± 1.1 kg/m3; speed of sound ([3]; 318.15 K): 1184.2 ± 1.5 m/s; mass density ([3]; 318.15 K): 1417.91 ± 1.1 kg/m3; speed of sound ([3]; 323.15 K): 1173.6 ± 1.5 m/s; mass density ([3]; 323.15 K): 1413.58 ± 1.1 kg/m3
COCCO [2-methoxyethan-1-ol]	1341.8 ± 1.5 m/s	960.31 ± 1 kg/m3	1324.1 ± 1.5 m/s	955.71 ± 1 kg/m3	1307.3 ± 1.5 m/s	951.08 ± 1 kg/m3	1292 ± 1.5 m/s	946.41 ± 1 kg/m3	1274.2 ± 1.5 m/s	941.72 ± 1 kg/m3	1259.4 ± 1.5 m/s	936.99 ± 1 kg/m3	175.32 ± 6.8 J/K/mol	176.9 ± 6.8 J/K/mol	178.41 ± 6.9 J/K/mol	179.96 ± 7 J/K/mol	181.45 ± 7 J/K/mol	183.02 ± 7.1 J/K/mol	–
